Results from paper PMC9490236, “Accurate de novo design of membrane-traversing macrocycles” (Cell, 2022).
Where a SMILES comes first, the peptide text is derived from it. [ ]: non-standard residue; d: D form. dNMeI = CC[C@@H](C)[C@@H](NC)C(=O)O; NMeL = CN[C@@H](CC(C)C)C(=O)O; Sar = CNCC(=O)O

Experiments:
[1] = Caco-2 permeability assay (apical to basolateral); type: in vitro ADME, human; conditions: for Papp A→B: Caco-2, Caco_Papp_Average
Procedure, shortened: (§1)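 Caco-2 monolayers were grown on 0.4 μm Transwell inserts for 6 days. Peptides were applied apically at 50 μM with HBSS basolaterally and incubated 90 min at 37°C with shaking.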

[2] = test system: Caco-2 cells; assay: Caco-2 permeability assay (apical to basolateral); type: in vitro ADME, human; conditions: Caco-2
Procedure, shortened: as §1

[3] = PAMPA
[4] = in vitro; conditions: PAMPA, PAMPA_Papp_Avg

Compound `CC[C@@H](C)[C@H]1NC(=O)[C@@H]2CCCN2C(=O)[C@@H]([C@H](C)CC)NC(=O)CN(C)C(=O)[C@H](CC(C)C)NC(=O)[C@@H](Cc2ccccc2)NC(=O)[C@H](CC(C)C)N(C)C(=O)[C@H]2CCCN2C(=O)[C@@H](CC(C)C)NC(=O)[C@H](CC(C)C)NC(=O)[C@H]2CCCN2C1=O` [Design D11.2, DILE DPRO LEU DLEU DPRO *LEU DPHE LEU *GLY DILE PRO] (cyclo(L[Sar][dI]P[dI][dP]L[dL][dP][NMeL][dF])) has a Papp A→B [1] of 2.82 ×10⁻⁶ cm/s, a Caco_R1 [2] of 1.94 and a Caco_R3 [2] of 2.65. It also gave a PAMPA_R1 [3] of 1.82E-06, a PAMPA_R3 [3] of 2.50E-06 and a Papp [4] of 2.15 ×10⁻⁶ cm/s.

`CC[C@@H](C)[C@H]1NC(=O)[C@H]([C@@H](C)CC)NC(=O)[C@H](CC(C)C)N(C)C(=O)[C@H]2CCCN2C(=O)[C@@H]([C@H](C)CC)NC(=O)[C@@H]([C@H](C)CC)N(C)C(=O)[C@H](CC(C)C)NC(=O)[C@H]2CCCN2C(=O)[C@@H]2CCCN2C(=O)[C@H](C(C)C)NC(=O)[C@H]2CCCN2C1=O` [Design D11.3, VAL PRO DPRO LEU *DILE DILE DPRO *LEU ILE DILE DPRO] (cyclo(I[dI][dP]VP[dP]L[dNMeI][dI][dP][NMeL])) gave a Papp ([1]; Caco-2) of 9.11 ×10⁻⁶ cm/s, a Papp A→B [1] of 9.11 ×10⁻⁶ cm/s and a Caco_R1 [2] of 7.29. The Caco_R3 [2] was 11.26, the PAMPA_R1 [3] was 1.91E-06 and the PAMPA_R3 [3] was 1.10E-06. It also gave a Papp [4] of 1.48 ×10⁻⁶ cm/s.
